Patent US20140288039A1, “LI[…] CHAIN TE[…] FOR ORAL […]” (Lipocine Inc., priority 2009, published 2014)

Assays:
[1] = Solubility of testosterone esters in lipophilic additives (castor oil, oleic acid, glyceryl mono and di linoleate), HPLC; conditions: room temperature, equilibrium, compared to the Undecanoate (T11) ester, values only in FIGS. 1-3
[2] = background statement, cited from earlier work
[3] = single daily dose oral administration

For CCCCCCCCCCCCCC(=O)O[C@H]1CC[C@H]2[C@@H]3CCC4=CC(=O)CC[C@]4(C)[C@H]3CC[C@]12C [Testosterone Tetradecoate (T14), Testosterone Tetradecoate], the “solubility in lipophilic additives (in words)” value [1] was “unexpectedly disproportionate lower solubility”.

For C[C@]12CCC(=O)C=C1CC[C@@H]1[C@@H]2CC[C@@]2(C)[C@H]1CC[C@]2(C)O [methyl testosterone], the “reported adverse effects (in words)” value ([2]; oral use) is given as “liver damage including cholestasis, peliosis hepatitis, nodular regenerative hyperplasia, and primary hepatic tumors”.

For CCCCCCCCCCC(=O)O[C@H]1CC[C@H]2[C@@H]3CCC4=CC(=O)CC[C@]4(C)[C@H]3CC[C@]12C [Testosterone Undecanoate (T11), Testosterone Undecanoate], the “percentage of patients in a group whose serum T remains in the hypogonadal range for a large proportion of the dosing period” value [2, 3] is listed as greater than 60% and the “time serum T levels remain in the hypogonadal range (<300 ng/dL) in a 24-hour period” value [2, 3] is listed as greater than 7 h.

For CCCCCCCCCCCCC(=O)O[C@H]1CC[C@H]2[C@@H]3CCC4=CC(=O)CC[C@]4(C)[C@H]3CC[C@]12C [Testosterone Tridecoate (T13), Testosterone Tridecoate], the “solubility in lipophilic additives (in words)” value [1] was “unexpectedly disproportionate lower solubility”.
